Results as given in article PMC12389269, “Heteroaryl-Capped Hydroxamic Acid Derivatives with Varied Linkers: Synthesis and Anticancer Evaluation with Various Apoptosis Analyses in Breast Cancer Cells, Including Docking, Simulation, DFT, and ADMET Studies” (Pharmaceuticals, 2025).
≈ marks a conversion by molar mass, not a printed value.

Assays:
[1] = tested on: MCF-7 cells; assay: Apoptosis study, acridine orange/ethidium bromide dual staining; assay type: cell-based, human; details: AO/EtBr staining, MCF-7, 40, 60, 80 µg/mL
Description: The staining technique was performed to determine changes in cellular morphology as acridine orange is a cell-permeable dye; i.e., it can enter inside the nucleus and subsequently intercalate with the DNA of both live and apoptotic cells an then emit a green fluorescence. On the other hand, ethidium bromide can only cross the plasma membrane of compromised or late apoptotic cells and bind with their DNA, subsequently radiating an orange to red fluorescence. Therefore, to assess alterations in the morphology of cells, MCF-7 cells were planted in a 12-well plate at a density of 5 × 10^4 cells/well and incubated in humidified air for 24 h at 37 °C. Following cell seeding, MCF-7 cells were exposed to compound VI(i) with at lower (40 µg/mL), IC50 (60 µg/mL), and higher (80 µg/mL) concentrations. Following this, the incubated cells were washed with a buffer (phosphate-buffered saline), and dual staining was executed with acridine orange and ethidium bromide. Then, a 12-well cell culture plate was kept at 37 °C for 30 min of incubation. Consequently, cells were lightly rinsed with phosphate-buffered saline. Following this, pictures were obtained in the inverted fluorescence microscope using the red and green channels for both the dyes.

[2] = tested on: A549 cells; assay: MTT cytotoxicity assay, A549; assay type: cell-based; details: Homo sapiens, A549, 24 h
Description: (§1) Following an extensive review of the literature, we selected human breast cancer (MCF-7, MDA-MB-231) and lung cancer (A549) cell lines to evaluate the anticancer potential of the synthesized compounds, and some compounds with good anti-proliferation activity were again tested to evaluate their cytotoxic potential on A-549, MCF-7, and MDA-MB-231. The same were also tested on one non-cancerous/normal (HEK-293) cell line. All the cell lines for the required screening were developed in a suitable medium comprising 10% FBS and 2mM L-glutamine. Cancerous and non-cancerous/normal cell lines were selected for the cell proliferation and cytotoxicity assay and maintained with 5% CO2 at 37 °C in a CO2 incubator with 100% relative humidity for one complete day before the addition of experimental drugs.
(§2) MTT, a well-known colorimetric cytotoxic assay was performed to validate the cytotoxicity of the selected compounds—VI(b), VI(c), VI(e), and VI(i)—against three different human tumor cell lines [MCF-7, MDA-MB-231, A549] and a normal cell line [HEK293]. The seeding of 1 × 10^4 cells onto each well was executed in a 96-well plate in triplicate, and to keep the cells viable, overnight incubation was undertaken at 37 °C with 5% CO2 in a CO2 incubator. […] The microplate reader was set at 570 nm to measure the absorbance of each well.

[3] = tested on: MDA-MB-231 cells; assay: MTT cytotoxicity assay, MDA-MB-231; assay type: cell-based; details: Homo sapiens, MDA-MB-231, 24 h
Description: as §1, §2

[4] = tested on: MCF-7 cells; assay: MTT cytotoxicity assay, MCF-7; assay type: cell-based; details: Homo sapiens, MCF7, MCF-7, 24 h
Description: as §1, §2

[5] = tested on: MCF-7 cells; assay: Cell cycle analysis, propidium iodide flow cytometry; assay type: cell-based, human
Description: Apoptosis can also be determined based on the content of the DNA allocation at different stages of cell cycle distribution. The cultured MCF-7 cell line was washed, trypsinized, and seeded, followed by compound VI(i) exposure in a 6-well cell culture plate. Following this, cells were harvested using 1mM EDTA; then, to fix the cells, ice-cold ethanol was used, and overnight, cells were kept at −20 °C. Afterwards, cells were maintained at room temperature, followed by centrifugation at 3000 RPM for 7 min. Then, staining was conducted using propidium iodide, RNase A, and Triton-X in a buffer (phosphate-buffered saline). It was then analyzed using a flow cytometer.

[6] = tested on: MCF-7 cells; assay: Apoptosis assay, annexin V/PI flow cytometry; assay type: cell-based, human; details: 24 h
Description: Qualitative analysis of different stages of apoptosis in MCF-7 cells using AO/EtBr dual staining was further quantitatively validated using annexin V/PI staining. Annexin V binds with the exposed phosphatidyl serine of apoptotic cells in a calcium-dependent manner and permits the determination of a number of cells in different stages of apoptosis. At the same time, PI binds with the nucleic acid of dead cells. In brief, cells were plated in a 6-well cell culture plate followed by exposure to lower, IC50, and higher concentrations of compound VI(i), as described in the above experiments. Following 24 h of incubation, treated cells were harvested using […] EDTA; then, annexin V/PI staining was performed, which was incubated for 30 min at 37 °C. The population of the apoptotic cells was examined by evaluating the cell suspension using a flow cytometer.

[7] = molecular target: T1, HDAC1 (Homo sapiens, UniProt Q13547); assay: HDAC inhibition assay (color de lys ELISA kit), HDAC1; assay type: biochemical; details: HeLa nuclear extract as source of HDAC activity
T1 construct: The HeLa nuclear extract was used as a source of HDAC activity; host or cells: HeLa (nuclear extract / cells)
T1 sequence (Q13547 whole entry): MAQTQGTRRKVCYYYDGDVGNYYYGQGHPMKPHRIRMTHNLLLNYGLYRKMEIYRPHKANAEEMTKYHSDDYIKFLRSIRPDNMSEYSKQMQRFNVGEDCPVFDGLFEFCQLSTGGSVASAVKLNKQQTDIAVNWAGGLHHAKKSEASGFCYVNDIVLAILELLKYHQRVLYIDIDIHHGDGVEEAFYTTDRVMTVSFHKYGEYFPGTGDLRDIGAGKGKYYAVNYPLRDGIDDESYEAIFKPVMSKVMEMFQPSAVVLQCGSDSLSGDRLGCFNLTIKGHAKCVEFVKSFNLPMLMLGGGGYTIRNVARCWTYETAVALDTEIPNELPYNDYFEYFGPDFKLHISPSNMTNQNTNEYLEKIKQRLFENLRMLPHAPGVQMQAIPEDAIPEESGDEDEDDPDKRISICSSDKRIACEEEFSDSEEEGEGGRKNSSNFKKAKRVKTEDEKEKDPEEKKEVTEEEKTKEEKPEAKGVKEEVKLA
Description: SAHA served as the assay’s positive control. The HeLa nuclear extract was used as a source of HDAC activity. The trypsinized HeLa cells were tallied, put into 96-well microtiter plates, and nurtured. Samples and the standard were placed in wells at a concentration of 100 µL. The culture environment was maintained as per the procedure. 3,3′,5,5′-tetramethylbenzidine (TMB) was included for visualization. Finally, 50 µL of halt solution was smeared. The samples and different SAHA concentrations (0.01, 0.1, 1, 10 μM) were introduced to the appropriate well and left for 72 h. BioTek Epoch (Winooski, VT, USA) microplate reader was used to quantify optical density at 450 nm. The Graph Pad Prism 5 helped to determine the IC50 values.

[8] = MCF-7, IC50 concentration (60 µg/mL)
[9] = MCF-7, higher concentration (80 µg/mL)
[10] = MCF-7, lower concentration (40 µg/mL)

COc1ccc(-c2cnn(CCCCCC(=O)NO)n2)cc1 [VI(i), N-Hydroxy-6-(4-(4-methoxyphenyl)-2H-1,2,3-triazol-2-yl)hexanamide]
apoptosis induction (cell morphology) [1]: effectively trigger the apoptotic mode of cell death in breast cancer cells in a concentration-dependent manner | IC50 [2]: > 100 mg/L | IC50 [3]: > 100 mg/L | IC50 [4]: 60 mg/L (≈ 197 µM) | increase in cells arrested in G2/M phase compared to control [5, 8]: 15.91% | increase in cells arrested in S phase compared to control [5, 8]: 6.9% | increase in cells arrested in G2/M phase compared to control [5, 9]: 19.35% | increase in cells arrested in S phase compared to control [5, 9]: 6.07% | increase in cells arrested in G2/M phase compared to control [5, 10]: 11.98% | increase in cells arrested in S phase compared to control [5, 10]: 5.92% | increment in early apoptotic cell population with respect to control [6, 8]: 9.58% | increment in late apoptotic cell population with respect to control [6, 8]: 12.6% | increment in early apoptotic cell population with respect to control [6, 10]: 5.61% | increment in late apoptotic cell population with respect to control [6, 10]: 4.14% | IC50 [7]: 10.1 µM
